The results in this text go back to patent US20230257366A1, “SULFUR-CONTAINING ISOINDOLINE DERIVATIVE, AND PREPARATION METHOD THEREFOR AND MEDICAL USE THEREOF” (JIANGSU HENGRUI PHARMACEUTICALS CO., LTD., priority 2020, published 2023).

One may read the AUC as the area under the concentration-time curve, a measure of exposure. For orientation: half-life means the time needed for the level to fall by half in the phase considered. The MRT is the average time that molecules of a dose stay in the body.

Molecules are shown by their SMILES.

One series concerns NCI-H929 cells. Nature of the series: NCI-H929 proliferation experiment (CellTiter-Glo, 5 days). The format is cell-based. Conditions: Homo sapiens, 120 h, 5 days incubation, read-out: IC50 values for the inhibition of proliferation of NCI-H929 cells. The procedure:
The following method was used to determine the inhibitory activity of the compounds of the present disclosure on the proliferation of NCI-H929 cells. The experimental method was briefly described as follows.
NCI-H929 cells (ATCC, CRL-9068) were cultured in a complete medium (RPMI 1640 medium (Hyclone, SH30809.01) containing 10% fetal bovine serum (Corning, 35-076-CV) and 0.05 mM 2-mercaptoethanol (Sigma, M3148)). On the first day of the experiment, NCI-H929 cells were seeded in a 96-well plate at a density of 6000 cells/well with a complete medium to form 100 μL of cell suspension per well, and 10 μL of test compound prepared in a complete medium and diluted in a gradient was added to each well. The compound was firstly dissolved in DMSO, with an initial concentration of 10 mM, and then subjected to serial dilution at a 5-fold concentration gradient for a total of 9 concentration points, with a blank control of 100% DMSO. Another 5 μL of the compound dissolved in DMSO was added to 95 μL of complete medium, i.e., the compound was diluted 20-fold with the complete medium. Finally the compound diluted in the complete medium at 10 μL/well was added to the cell suspension, wherein the final concentrations of the compound were 9 concentration points obtained by 5-fold gradient dilution starting from 50 μM. A blank control containing 0.5% DMSO was set. The plate was incubated in a cell incubator at 37° C. with 5% CO2 for 5 days. On the sixth day, the 96-well cell culture plate was taken out, added with a CellTiter-Glo® luminescent cell activity detect reagent (Promega, G7573) at 50 μL/well, left to stand at room temperature for 10 min, and read for the luminescence signal values using a multi-mode microplate reader (PerkinElmer, EnVision 2015). IC50 values for the inhibitory activity of the compounds were calculated using Graphpad Prism software, with the results shown in Table 1.
Background: ATP-based viability assays read luminescence as a measure of living cells.

The nature of series [1]: Pharmacokinetic evaluation in mice after intragastric administration (LC/MS/MS). In kind it is in vivo. Conditions: female, mouse, plasma, po, mice, intragastric, 2 mg/kg. As to the method: The drug concentration in the plasma of the test animals (mice) at different time points after intragastric administration of the compound of Example 6 and the control example CC-92480 was determined by an LC/MS/MS method. The pharmacokinetic behavior of the compound of the present disclosure in mice was studied and its pharmacokinetic profile was evaluated.
Compound of Example 6 and control example CC-92480.
Eighteen mice, female, purchased from Beijing Vital River Laboratory Animal Technology Co., Ltd., with animal production license number of SCXK (Shanghai) 2017-0005.
A certain amount of compound of Example 6 was weighed, dissolved by adding 5% by volume of DMSO and 5% Tween 80 (Shanghai Titan Scientific Co., Ltd.), and then prepared into a 0.1 mg/mL clear solution by adding 90% normal saline.
A certain amount of the control example CC-92480 was weighed, dissolved by adding 5% by volume of DMSO and 5% Tween 80 (Shanghai Titan Scientific Co., Ltd.), and then prepared into a 0.1 mg/mL clear solution by adding 90% normal saline.
Nine mice were intragastrically administered with the compound of Example 6 at a dose of 2 mg/kg and at a volume of 0.2 mL/10 g.
Nine mice were intragastrically administered with the control example CC-92480 at a dose of 2 mg/kg and at a volume of 0.2 mL/10 g.
Mice were intragastrically administered with the compound of Example 6 and the control example CC-92480, and 0.2 mL of blood was collected before the administration and 0.25 h, 0.5 h, 1.0 h, 2.0 h, 4.0 h, 6.0 h, 8.0 h, 11.0 h and 24.0 h after the administration (3 animals at each time point), placed in EDTA-K2 anticoagulation tubes, and centrifuged at 10,000 rpm for 1 min(4° C.). Plasma was separated within 1 h, and stored at −20° C. for testing. The process from blood collection to centrifugation was performed under an ice bath.
The content of the test compounds at different concentrations in mouse plasma after the administration was determined: 25 μL of mouse plasma at each time point after the administration was mixed with 50 μL (100 ng/mL) of internal standard solution camptothecin (National Institutes for Drug Control) and 175 μL of acetonitrile. The mixture was vortexed for 5 min and centrifuged for 10 min (3700 rpm/min), and 1 μL of the supernatant of the plasma sample was taken for LC/MS/MS assay (API4000 triple quadrupole tandem mass spectrometer, Applied Biosystems, USA; Shimadzu, LC-30AD ultra high performance liquid chromatography system, Shimadzu, Japan).

The nature of series [2]: Effect on body weight of tumor-bearing CB-17 SCID mice. Conditions: 1 mg/kg qd, 11 days. In kind it is in vivo. The procedure: NCI-H929 cells in a logarithmic growth phase were inoculated subcutaneously into the right flank of 30 female CB-17 SCID mice at 5×10^6 cells/mouse/100 μL (containing 50 μL of Matrigel). After 10 days, when the tumor volume of the tumor-bearing mice reached about 200 mm^3, the mice were randomly divided into 3 groups according to the tumor volume and body weight: vehicle control group, CC-92480-1 mpk, compound of Example 6-1 mpk, with 7 mice in each group. The day of grouping was set as Day 0 (D0), and intragastric administration was performed once a day for 11 days (Table 2). For the tumor-bearing mice, the tumor volume was measured with a vernier caliper and the body weight was measured with a balance twice a week, and the data were recorded.
The effect of the compound of Example 6 and the control example CC-92480 on the body weight of CB-17 SCID mice is shown in FIG. 2.

`N#Cc1ccc(N2CCC(Sc3ccc(COc4cccc5c4CN([C@H]4CCC(=O)NC4=O)C5=O)cn3)CC2)c(F)c1` [Compound 6, (S)-4-(4-((5-(((2-(2,6-dioxopiperidin-3-yl)-1-oxoisoindolin-4-yl)oxy)methyl)pyridin-2-yl)thio)piperidin-1-yl)-3-fluorobenzonitrile]: the IC50 in the series with NCI-H929 cells came to 0.02 nM. Besides, the Vd/F in series [1] (read-out: Apparent volume of distribution Vz/F) worked out at 1.79 L/kg. In addition, the AUC in series [1] (read-out: Area under curve AUC) is 4690 ng·h/mL. The CL/F in series [1] (read-out: Clearance CL/F) came out at 7.1 mL/min/kg. In addition, the half-life in series [1] (read-out: Half-life T½ (converted)) is 2.9 h. In addition, the Cmax in series [1] (read-out: Plasma concentration Cmax) turned out to be 799 ng/mL. Further, the MRT in series [1] (read-out: Residence time MRT) amounted to 4.6 h. Moreover, the “influence on the body weight of mice” value in series [2] is given as “no influence on the body weight of mice”.
